In PubChem BioAssay (NCI):
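Dose response: 5 concentrations. Exposure: 48 h. Format: 96-well plates. Endpoint: linear interpolation; highest concentration if not reached. TGI denotes the concentration required for complete inhibition of growth.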

Columns and labels:
Assay in all cases: DTP human tumour cell line panel, 48 h
OVCAR-8 ovarian = test system: OVCAR-8 ovarian
MDA-MB-231 breast = test system: MDA-MB-231 breast
NCI-H460 lung = test system: NCI-H460 lung
PC-3 prostate = test system: PC-3 prostate
SF-539 CNS = test system: SF-539 CNS
SF-295 CNS = test system: SF-295 CNS
K-562 leukemia = test system: K-562 leukemia
UACC-257 melanoma = test system: UACC-257 melanoma
COLO 205 colon = test system: COLO 205 colon
MALME-3M melanoma = test system: MALME-3M melanoma
SN12C renal = test system: SN12C renal
T-47D breast = test system: T-47D breast
U251 CNS = test system: U251 CNS
SNB-19 CNS = test system: SNB-19 CNS
MCF7 breast = test system: MCF7 breast
TK-10 renal = test system: TK-10 renal
OVCAR-4 ovarian = test system: OVCAR-4 ovarian
NCI/ADR-RES ovarian = test system: NCI/ADR-RES ovarian
SK-MEL-28 melanoma = test system: SK-MEL-28 melanoma
SK-MEL-5 melanoma = test system: SK-MEL-5 melanoma
ACHN renal = test system: ACHN renal
DU-145 prostate = test system: DU-145 prostate
SW-620 colon = test system: SW-620 colon
HT29 colon = test system: HT29 colon
MDA-N = test system: MDA-N
HS 578T breast = test system: HS 578T breast
HL-60(TB) leukemia = test system: HL-60(TB) leukemia
OVCAR-5 ovarian = test system: OVCAR-5 ovarian
SK-OV-3 ovarian = test system: SK-OV-3 ovarian
M14 melanoma = test system: M14 melanoma
OVCAR-3 ovarian = test system: OVCAR-3 ovarian
HCT-116 colon = test system: HCT-116 colon
RXF 393 renal = test system: RXF 393 renal
HCT-15 colon = test system: HCT-15 colon
786-0 renal = test system: 786-0 renal
SNB-75 CNS = test system: SNB-75 CNS
HCC-2998 colon = test system: HCC-2998 colon
SF-268 CNS = test system: SF-268 CNS
MOLT-4 leukemia = test system: MOLT-4 leukemia
UACC-62 melanoma = test system: UACC-62 melanoma
EKVX NSCLC = test system: EKVX NSCLC
A498 renal = test system: A498 renal
KM12 colon = test system: KM12 colon
HOP-62 NSCLC = test system: HOP-62 NSCLC
UO-31 renal = test system: UO-31 renal
CAKI-1 renal = test system: CAKI-1 renal
IGROV1 ovarian = test system: IGROV1 ovarian
LOX IMVI melanoma = test system: LOX IMVI melanoma
CCRF-CEM leukemia = test system: CCRF-CEM leukemia
BT-549 breast = test system: BT-549 breast
SR leukemia = test system: SR leukemia
NCI-H23 lung = test system: NCI-H23 lung
A549 NSCLC = test system: A549 NSCLC
NCI-H226 lung = test system: NCI-H226 lung
MDA-MB-435 = test system: MDA-MB-435
HOP-92 NSCLC = test system: HOP-92 NSCLC
NCI-H522 lung = test system: NCI-H522 lung
SK-MEL-2 melanoma = test system: SK-MEL-2 melanoma
RPMI-8226 leukemia = test system: RPMI-8226 leukemia

Measured: TGI

N#CS/C(Cl)=C(/C(Cl)=C(Cl)Cl)[N+](=O)[O-]
64.9 µM: MOLT-4 leukemia
47.1 µM: MALME-3M melanoma
98.1 µM: NCI/ADR-RES ovarian
39.8 µM: LOX IMVI melanoma
29.3 µM: SNB-19 CNS
86.5 µM: SK-MEL-28 melanoma
45.9 µM: HCT-15 colon
75.7 µM: HCT-116 colon
48.9 µM: OVCAR-3 ovarian
53.9 µM: SR leukemia
61 µM: HS 578T breast
76.4 µM: 786-0 renal
not listed: MDA-MB-435 | HOP-92 NSCLC | NCI-H522 lung | SK-MEL-2 melanoma | RPMI-8226 leukemia
> 100 µM: all other assays above

CC(=O)N1c2ccccc2Sc2cc(C(O)(C(F)(F)F)C(F)(F)F)ccc21
not listed: SR leukemia | RPMI-8226 leukemia
> 10 µM: all other assays above

COC1OC(CO)C(O)C(OC(=O)c2cc(O)c(O)c(O)c2)C1OC(=O)c1cc(O)c(O)c(O)c1 (stereo not given)
55.7 µM: MDA-N
68.2 µM: LOX IMVI melanoma
90.4 µM: OVCAR-4 ovarian
42.1 µM: SF-295 CNS
not listed: T-47D breast | HCC-2998 colon | UACC-62 melanoma | A498 renal | HOP-92 NSCLC
> 100 µM: all other assays above
